Test results reported in patent US4837238A, “Pharmacologically useful pyrazolopyridines” (Beecham Group p.l.c., priority 1985, dated 1989).

What was measured:
Format in all cases: in vivo
cantharidin mouse ear = assay: Mouse cantharidin screen (topical anti-inflammatory activity, mouse ear); details: 500 μg/ear, 25 μg cantharidin, 24 h, ***P < 0.001
Description: Compounds were tested for topical anti-inflammatory activity in a cantharidin mouse ear screen, modified from Swingle, K. F., Reiter, M. J. and Schwartzmiller, D. H., Arch. Int. Pharmacodyn., (1981), 254, 168-176).
(a) 25 μg cantharidin (in 10 μl THF/MeOH) was applied to both ears. Compound, in the same solvent, was applied at the same time, to the left ear only. Ears were weighed 24 h after cantharidin application. Percentage inhibition of the acute inflammatory swelling refers to the increase in weight of left ears (cantharidine plus compound) compared with solvent-treated negative controls, as a proportion of the increase in weight of right ears (cantharidin alone) over similar controls.

[1] = system: Carrageenin-induced pleurisy in the rat; assay: Carrageenin-induced pleurisy in the rat (monocyte accumulation); details: 25 mg/kg p.o., 1 hour before and 24 and 48 hours after carrageenin, 72 hours; compared to control (p<0.05)
Description: This model of monocyte accumulation is based on the method of R. Vinegar, J. F. Truax, J. L. Selph and F. A. Voelker [Federation Proceedings 41, 2588-2595, 1982].
0.2 ml of a 2.0% solution of λ-carrageenin (Viscarin 402) in saline was injected intrapleurally in anaesthetised rats (wt. approx. 175-200 g). Compounds were administered 1 hour before carrageenin and at 24 and 48 hours after carrageenin. 72 hours after carrageenin injection, 4.0 ml of EDTA solution (5 g EDTA in 100 ml of 0.9% saline and 325 mg phenol red added together with saline to 1 liter) was injected intrapleurally after killing the animals, and the exudate was removed with a syringe through the diaphragm. Exudate volume was calculated from the dilution of the phenol red injected, determined spectrophotometrically (560 nm) and cellular content estimated with a DNA assay [Karsten U. and Wollenberger A. Anal. Biochem. 77, 464-470, 1977].

[2] = system: mouse sensitized to oxazolone; assay: Mouse oxazolone screen (topical anti-inflammatory activity, sensitized mouse ear); details: 200 μg/ear, 1 hour before 100 μg oxazolone challenge, 24 hours, **p < 0.01, ***p < 0.001
Description: Compounds were tested for topical anti-inflammatory activity in a screen using the mouse sensitized to oxazolone, by a method modified from that of Dietrich and Hess [Int. Arch. Allergy, 38, 246 (1970)].
Mice were sensitized with oxazolone (2 mg in 20 μl EtOH) on a shaved area of the abdomen. 5 days later, the animals received 10 μl THF/MeOH (1:1 v/v) on the right ear and the test compound in the same solvent on the left ear. 1 hour later, the animals were challenged with 100 μg oxazolone in 10 μl acetone on each ear. Ear weights were measured 24 hours later. Percentage inhibition of the inflammatory swelling refers to the increase in weight of left ears (oxazolone plus compound in THF/MeOH) compared to untreated negative controls, as a proportion of the increase in weight of right ears (oxazolone only in THF/MeOH) over similar controls.

| SMILES | % INHIBITION (acute inflammatory swelling, ear weight) (cantharidin mouse ear) | inhibition of DNA content (exudate cellular content) [1] | inhibition of exudate volume [1] | % INHIBITION (inflammatory swelling, ear weight) [2] |
| --- | --- | --- | --- | --- |
| CCCNc1c(CN)cnc2cn[nH]c12 [Example 9, 6-Aminomethyl-7-propylamino-1H-pyrazolo[4,3-b]pyridine] | 91% |  |  |  |
| OCCNc1c2c(nc3cn[nH]c13)CCCC2 [Example 5, 9-(2-Hydroxyethylamino)-5,6,7,8-tetrahydro-1H-pyrazolo-[4,3-b]quinoline] | 91% | 31% | 36% |  |
| CC(C)CNc1c2c(nc3cn[nH]c13)CCCC2 [Example 6, 9-Isobutylamino-5,6,7,8-tetrahydro-1H-pyrazolo[4,3-b]quinoline] | 97% |  |  | 66% |
| CCCCNc1c(C)cnc2cn[nH]c12 [Example 1, 7n-Butylamino-6-methyl-1H-pyrazolo[4,3-b]pyridine] | 95% |  |  |  |
| CC(C)CNc1c2c(nc3cn[nH]c13)CCC2 [Example 8, 8-Isobutylamino-5,6,7-trihydro-1H-cyclopenta[b]pyrazolo[3,4-e]pyridine] | 97% |  |  | 49% |
